# Experimental data reported in US20260013504A1, “HERBICIDAL MIXTURE, HERBICIDAL COMPOSITION, METHOD, USE, AND KITS FOR CONTROLLING UNDESIRABLE VEGETATION” (ADAMA AGAN LTD., priority 2022, published 2026).
# Legend:
# Type in all cases: in vivo
# Aegilops tauschii = experiment: Pot experiment, soil treatment, control of Aegilops tauschii (fresh weight, Colby); details: mixtures: both AIs at these rates, after 35 days
# Excerpt: (§1) Referring to an article of Colby, S. R. i.e., Calculation of the synergistic and antagonistic response of herbicide combinations.
# E0 is the theoretical fresh weight survival rate for the mixture of pyroxasulfone and the second herbicide selected from the group consisting of fluorochloridone, aclonifen, diflufenican and terbutryn;
# X is the measured fresh weight survival rate for pyroxasulfone used alone at the same dosage as that in the mixture;
# Y is the measured fresh weight survival rate for the second herbicide selected from the group consisting of fluorochloridone, aclonifen, diflufenican and terbutryn used alone at the same dosage as that in the mixture;
# E is the measured fresh weight survival rate for the mixture of pyroxasulfone and the second herbicide selected from the group consisting of fluorochloridone, aclonifen, diflufenican and terbutryn.
# (§2) E0-E value is calculated to evaluate the combined effect of pyroxasulfone and the second herbicide selected from the group consisting of fluorochloridone, aclonifen, diflufenican and terbutryn on the selected weeds.
# (§3) In this Example, the herbicidal activity of treatments by a mixture of pyroxasulfone and the second herbicide selected from the group consisting of fluorochloridone, aclonifen, diflufenican and terbutryn for controlling Aegilops tauschii was investigated by a pot experiment. This Example was carried out in accordance with “NY/T 1155.4-2006 Guidelines for Indoor Bioassay Tests of Pesticides, Herbicides Part 4: Activity Determination Tests, Stem and Leaf Spray Method”. • Source of the agrochemicals tested were: • Pyroxasulfone: pyroxasulfone (850g/Kg, WG) from Adama Agan LTD. • Fluorochloridone: fluorochloridone (250 g/L, EC) from Adama Agan LTD. • Aclonifen: aclonifen (600 g/L, SC) from Adama Agan LTD. • Diflufenican: diflufenican (50g/Kg, WP) from Bayer. • Terbutryn: terbutryn (50g/Kg, SC) from Zhejiang Zhongshan Chemical Industry Group Co., Ltd. • Cultivation of test materials: The test soil was formed by mixing the 20 cm layer loam on the ground surface and the culture medium in a ratio of 3:1 as cultivation soil. Weeds were cultivated in an artificial climate chamber. The daytime and nighttime temperatures were set at 22° C. and 19° C., respectively, and the illumination was set at daytime: dark time 12h: 12h.
# (§4) A certain amount of Aegilops tauschii seeds were sown in a plastic pot with a diameter of 9 cm, covering with 1-2 mm soil, and putting them in an enamel dish filled with water. The bottom infiltration method was used to water them, the agrochemicals tested in this Example were applied on the second day after sowing Aegilops tauschii seeds.
# (§5) Spraying treatment: ASS-4 automatic control spraying system with a fan-shaped nozzle was used indoors to spray the agrochemicals, the running speed was adjusted based on nozzle pressure, flow rate, etc. to spray 50 mL of liquid of agrochemicals on the actual spray area of 1.1 m2 (equivalent to 30 liters per mu), arranging the plastic pots to be processed on the spraying table evenly, and spraying evenly. The spraying pressure was 0.35 MPa, and the flow rate of the fan-shaped nozzle was 800 mL/min, spraying in order from low dosage to high dosage. Each treatment was repeated 3 times. After spraying, the plastic pots were dried for one day, placed in an artificial climate chamber, and watered regularly to keep moist.
# (§6) Weed investigation method and time: after applying the agrochemicals, the symptoms of weed damage (such as growth inhibition, chlorosis, deformity, etc.) were recorded in detail. After 35 days, the fresh weight of aerial part of the weeds in each treatment was weighed, and the measured fresh weight inhibition rate and the measured fresh weight survival rate for each treatment were calculated according to the following equations: […]
# Lolium multiflorum Lamk = experiment: Pot experiment, soil treatment, control of Lolium multiflorum Lamk (fresh weight, Colby); details: mixtures: both AIs at these rates, after 35 days
# Description: as §1, §2, §3, §4, §5, §6
# Example 2 was conducted in substantially the same way as Example 1, except that Lolium multiflorum Lamk was used instead of Aegilops tauschii.
# Bromus japonicus = experiment: Pot experiment, soil treatment, control of Bromus japonicus (fresh weight, Colby); details: mixtures: both AIs at these rates, after 35 days
# Description: as §1, §2, §3, §4, §5, §6
# Example 3 was conducted in substantially the same way as Example 1, except that Bromus japonicus was used instead of Aegilops tauschii.
# Galium aparine = experiment: Pot experiment, soil treatment, control of Galium aparine (fresh weight, Colby)
# Description: as §1, §2, §3, §4, §5, §6
# Example 4 was conducted substantially the same way as Example 1, except that Galium aparine was used instead of Aegilops tauschii.
# Lithospermum arvense = experiment: Pot experiment, soil treatment, control of Lithospermum arvense (fresh weight, Colby)
# Description: as §1, §2, §3, §4, §5, §6
# Example 5 was conducted substantially the same way as Example 1, except that Lithospermum arvense was used instead of Aegilops tauschii.
# Solanum nigrum = experiment: Pot experiment (glass greenhouse), soil treatment, control of Solanum nigrum (fresh weight, Colby)
# Description: as §1, §2, §3, §4, §5, §6
# Example 6 was substantially conducted in the same as Example 1, except that (1) Solanum nigrum was used instead of Aegilops tauschii, (2) in “Cultivation of test materials” part, Solanum nigrum was cultivated in a glass greenhouse instead of an artificial climate chamber at a temperature of 25 to 33° C. with a natural illumination, and (3) in “Spraying treatment” part, after spraying and drying, the plastic pots were placed in a glass greenhouse instead of an artificial climate chamber.
# [1] = g ai/ha: pyroxasulfone 11.25, fluorochloridone 31.25, aclonifen 150, diflufenican 14.0625, terbutryn 140.625
# [2] = g ai/ha: pyroxasulfone 22.5, fluorochloridone 62.5, aclonifen 300, diflufenican 28.125, terbutryn 281.25
# [3] = g ai/ha: pyroxasulfone 45, fluorochloridone 125, aclonifen 600, diflufenican 56.25, terbutryn 562.5
# [4] = g ai/ha: pyroxasulfone 90, fluorochloridone 250, aclonifen 1200, diflufenican 112.5, terbutryn 1125
# [5] = g ai/ha: pyroxasulfone 180, fluorochloridone 500, aclonifen 2400, diflufenican 225, terbutryn 2250
# [6] = g ai/ha: pyroxasulfone 360, fluorochloridone 1000, aclonifen 4800, diflufenican 450, terbutryn 4500
compound,measurement,setting,value
"CCNc1nc(NC(C)(C)C)nc(SC)n1 [terbutryn, N-(1,1-dimethylethyl)-N′-ethyl-6-(methylthio)-1,3,5-triazine-2,4-diamine]",Measured fresh weight inhibition rate (%),Aegilops tauschii; [1],8.5%
same,Measured fresh weight survival rate (%) - E,Aegilops tauschii; [1],91.5%
same,Measured fresh weight inhibition rate (%),Aegilops tauschii; [2],12.8%
same,Measured fresh weight survival rate (%) - E,Aegilops tauschii; [2],87.2%
same,Measured fresh weight inhibition rate (%),Aegilops tauschii; [3],46.3%
same,Measured fresh weight survival rate (%) - E,Aegilops tauschii; [3],53.7%
same,Measured fresh weight inhibition rate (%),Aegilops tauschii; [4],97.6%
same,Measured fresh weight survival rate (%) - E,Aegilops tauschii; [4],2.4%
same,Measured fresh weight inhibition rate (%),Aegilops tauschii; [5],96.3%
same,Measured fresh weight survival rate (%) - E,Aegilops tauschii; [5],3.7%
same,Measured fresh weight inhibition rate (%),Aegilops tauschii; [6],100.0%
same,Measured fresh weight survival rate (%) - E,Aegilops tauschii; [6],0.0%
same,Measured fresh weight inhibition rate (%),Lolium multiflorum Lamk; [1],94.3%
same,Measured fresh weight survival rate (%) - E,Lolium multiflorum Lamk; [1],5.7%
same,Measured fresh weight inhibition rate (%),Lolium multiflorum Lamk; [2],94.8%
same,Measured fresh weight survival rate (%) - E,Lolium multiflorum Lamk; [2],5.2%
same,Measured fresh weight inhibition rate (%),Lolium multiflorum Lamk; [3],100.0%
same,Measured fresh weight survival rate (%) - E,Lolium multiflorum Lamk; [3],0.0%
same,Measured fresh weight inhibition rate (%),Lolium multiflorum Lamk; [4],100.0%
same,Measured fresh weight survival rate (%) - E,Lolium multiflorum Lamk; [4],0.0%
same,Measured fresh weight inhibition rate (%),Lolium multiflorum Lamk; [5],100.0%
same,Measured fresh weight survival rate (%) - E,Lolium multiflorum Lamk; [5],0.0%
same,Measured fresh weight inhibition rate (%),Lolium multiflorum Lamk; [6],100.0%
same,Measured fresh weight survival rate (%) - E,Lolium multiflorum Lamk; [6],0.0%
same,Measured fresh weight inhibition rate (%),Bromus japonicus; [1],100.0%
same,Measured fresh weight survival rate (%) - E,Bromus japonicus; [1],0.0%
same,Measured fresh weight inhibition rate (%),Bromus japonicus; [2],100.0%
same,Measured fresh weight survival rate (%) - E,Bromus japonicus; [2],0.0%
same,Measured fresh weight inhibition rate (%),Bromus japonicus; [3],100.0%
same,Measured fresh weight survival rate (%) - E,Bromus japonicus; [3],0.0%
same,Measured fresh weight inhibition rate (%),Bromus japonicus; [4],100.0%
same,Measured fresh weight survival rate (%) - E,Bromus japonicus; [4],0.0%
same,Measured fresh weight inhibition rate (%),Bromus japonicus; [5],100.0%
same,Measured fresh weight survival rate (%) - E,Bromus japonicus; [5],0.0%
same,Measured fresh weight survival rate (%) - E,Galium aparine; 140.625 g ai/ha,80.8%
same,Measured fresh weight survival rate (%) - E,Galium aparine; 281.25 g ai/ha,53.4%
same,Measured fresh weight survival rate (%) - E,Galium aparine; 562.5 g ai/ha,9.6%
same,Measured fresh weight survival rate (%) - E,Galium aparine; 1125 g ai/ha,8.2%
same,Measured fresh weight survival rate (%) - E,Galium aparine; 2250 g ai/ha,0.0%
same,inhibition at 140.625 g/ha,"Galium aparine; Galium aparine, soil, 140.625 g ai/ha, read-out: Measured fresh weight inhibition rate (%)",19.2%
same,inhibition at 281.25 g/ha,"Galium aparine; Galium aparine, soil, 281.25 g ai/ha, read-out: Measured fresh weight inhibition rate (%)",46.6%
same,inhibition at 562.5 g/ha,"Galium aparine; Galium aparine, soil, 562.5 g ai/ha, read-out: Measured fresh weight inhibition rate (%)",90.4%
same,inhibition at 1125 g/ha,"Galium aparine; Galium aparine, soil, 1125 g ai/ha, read-out: Measured fresh weight inhibition rate (%)",91.8%
same,inhibition at 2250 g/ha,"Galium aparine; Galium aparine, soil, 2250 g ai/ha, read-out: Measured fresh weight inhibition rate (%)",100%
same,Measured fresh weight survival rate (%) - E,Lithospermum arvense; 140.625 g ai/ha,1.4%
same,Measured fresh weight survival rate (%) - E,Lithospermum arvense; 281.25 g ai/ha,1.4%
same,Measured fresh weight survival rate (%) - E,Lithospermum arvense; 562.5 g ai/ha,0.0%
same,Measured fresh weight survival rate (%) - E,Lithospermum arvense; 1125 g ai/ha,0.0%
same,Measured fresh weight survival rate (%) - E,Lithospermum arvense; 2250 g ai/ha,0.0%
same,inhibition at 140.625 g/ha,"Lithospermum arvense; Buglossoides arvensis, soil, 140.625 g ai/ha, read-out: Measured fresh weight inhibition rate (%)",98.6%
same,inhibition at 281.25 g/ha,"Lithospermum arvense; Buglossoides arvensis, soil, 281.25 g ai/ha, read-out: Measured fresh weight inhibition rate (%)",98.6%
same,inhibition at 562.5 g/ha,"Lithospermum arvense; Buglossoides arvensis, soil, 562.5 g ai/ha, read-out: Measured fresh weight inhibition rate (%)",100%
same,inhibition at 1125 g/ha,"Lithospermum arvense; Buglossoides arvensis, soil, 1125 g ai/ha, read-out: Measured fresh weight inhibition rate (%)",100%
same,inhibition at 2250 g/ha,"Lithospermum arvense; Buglossoides arvensis, soil, 2250 g ai/ha, read-out: Measured fresh weight inhibition rate (%)",100%
same,Measured fresh weight survival rate (%) - E,Solanum nigrum; 140.625 g ai/ha,57.6%
same,Measured fresh weight survival rate (%) - E,Solanum nigrum; 281.25 g ai/ha,36.1%
same,Measured fresh weight survival rate (%) - E,Solanum nigrum; 562.5 g ai/ha,0.4%
same,Measured fresh weight survival rate (%) - E,Solanum nigrum; 1125 g ai/ha,0.0%
same,Measured fresh weight survival rate (%) - E,Solanum nigrum; 2250 g ai/ha,0.0%
same,inhibition at 140.625 g/ha,"Solanum nigrum; Solanum nigrum, soil, 140.625 g ai/ha, read-out: Measured fresh weight inhibition rate (%)",42.4%
same,inhibition at 281.25 g/ha,"Solanum nigrum; Solanum nigrum, soil, 281.25 g ai/ha, read-out: Measured fresh weight inhibition rate (%)",63.9%
same,inhibition at 562.5 g/ha,"Solanum nigrum; Solanum nigrum, soil, 562.5 g ai/ha, read-out: Measured fresh weight inhibition rate (%)",99.6%
same,inhibition at 1125 g/ha,"Solanum nigrum; Solanum nigrum, soil, 1125 g ai/ha, read-out: Measured fresh weight inhibition rate (%)",100%
same,inhibition at 2250 g/ha,"Solanum nigrum; Solanum nigrum, soil, 2250 g ai/ha, read-out: Measured fresh weight inhibition rate (%)",100%
